Data as given in patent US5591749A, “Imidazopyridines as serotonergic 5-HT3 -antagonists” (G. D. Searle & Co., priority 1995, dated 1997).
Values joined by “and” are separate entries in the source; they are usually repeats but may differ in a detail not shown here. Equal entries are not always repeated. Structures can show the parent of a compound that is named as a salt. Where two headings read alike, the source gives them in different places.

Experiments:
[1] = target: T1, 5-HT3 (Mus musculus, UniProt P23979); test: 5-HT3 binding, NG108-15 cells
T1 construct: NG108-15 Cells; endogenous in cells; host or cells: NG108-15 cells
T1 sequence (P23979 24-489): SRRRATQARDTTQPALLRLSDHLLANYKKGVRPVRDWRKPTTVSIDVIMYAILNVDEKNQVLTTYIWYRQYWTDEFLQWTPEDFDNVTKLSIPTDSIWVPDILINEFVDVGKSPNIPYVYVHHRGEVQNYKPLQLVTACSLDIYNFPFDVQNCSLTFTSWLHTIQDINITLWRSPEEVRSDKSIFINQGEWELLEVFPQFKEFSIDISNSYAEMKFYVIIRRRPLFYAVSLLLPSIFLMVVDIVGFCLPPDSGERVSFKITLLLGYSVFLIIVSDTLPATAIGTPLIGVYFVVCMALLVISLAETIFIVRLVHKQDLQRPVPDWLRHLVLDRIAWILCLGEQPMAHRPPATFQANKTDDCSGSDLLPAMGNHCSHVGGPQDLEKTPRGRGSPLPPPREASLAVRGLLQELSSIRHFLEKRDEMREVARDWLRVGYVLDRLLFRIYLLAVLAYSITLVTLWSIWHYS
Source text: (§1) 5-HT3 antagonism can be determined by the radioligand receptor binding assay as described herein and in the in vivo Bezold-Jarisch reflex procedure.

[2] = tested on: 5-HT-induced bradycardia; test: Bezold-Jarisch reflex (5-HT-induced bradycardia) in pentobarbital anesthetized mice; format: in vivo
Description: as §1
The test sample is administered i.p. (mg/kg) to a group of 3 mice. […] A greater than 50 percent (>50) reduction in the bradycardic response relative to vehicle-treated control mice is considered significant.
This method has been described by Saxena, P. R. and Lawang, A., Arch. Int. Pharmacodyn., 277:235-252, 1985.

[3] = target: T2, 5-HT3 receptor (Rattus norvegicus, UniProt P35563); test: [3H]-GR65630 radioligand receptor binding assay, rat brain cortex membranes; details: for Hill Coefficient: 0.2 nM [3H]-GR65630
T2 construct: Brain cortices are obtained from male rats and a membrane fraction prepared by standard techniques; from tissue; host or cells: rat brain cortex membranes
T2 sequence (P35563 24-483): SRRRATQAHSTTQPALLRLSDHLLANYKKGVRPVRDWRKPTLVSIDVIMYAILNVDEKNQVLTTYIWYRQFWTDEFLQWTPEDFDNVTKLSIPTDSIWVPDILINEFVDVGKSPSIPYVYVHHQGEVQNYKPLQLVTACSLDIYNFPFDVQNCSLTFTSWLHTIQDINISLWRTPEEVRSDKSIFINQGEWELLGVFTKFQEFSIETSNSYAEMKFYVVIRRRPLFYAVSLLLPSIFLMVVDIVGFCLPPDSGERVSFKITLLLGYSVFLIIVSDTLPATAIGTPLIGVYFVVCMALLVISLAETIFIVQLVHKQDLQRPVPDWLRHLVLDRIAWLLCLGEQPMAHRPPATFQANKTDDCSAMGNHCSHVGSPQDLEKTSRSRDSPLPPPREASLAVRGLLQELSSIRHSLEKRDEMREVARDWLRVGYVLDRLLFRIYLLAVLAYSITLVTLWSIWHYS
Description: as §1
GR65630 binds to the 5-HT3 receptor. Brain cortices are obtained from male rats and a membrane fraction prepared by standard techniques. 0.04 mg of membrane prep is incubated with 0.2 nM [^3 H]-GR656630 for 60 minutes at 22° C. […] Membranes are filtered and washed 3 times and the filters are counted to determine [3H]-GR65630 specifically bound.*
Effect of Reference Compounds on
Kilpatrick GJ, Jones BJ and Tyers MB. Identification and distribution of 5-HT3 receptors in rat brain using radioligand binding. Nature, 330: 746-748, 1987.

[4] = several examples have two IC50 values, read-out: 5-HT3 binding: NG108-15 cells IC50
[5] = Mus musculus, ip, 0.5 h, read-out: Minimum Effective Dose (MED)
[6] = Mus musculus, ip, 0.5 h; read-out: Minimum Effective Dose (MED)

Structure (SMILES): O=C(N[C@H]1CCN2CCC[C@@H]1C2)c1cc(Cl)cn2ccnc12 (relative stereo) [Example 1, endo-N-(1-Azabicyclo[3.3.1]nonan-4-yl)-6-chloroimidazo[1,2-a]pyridine-8-carboxamide, dihydrochloride]
- Ki [1]: 137 nM
- Bezold Jarisch reflex (mice); % Inhibition @ Dose (IP) ([2]; 1 mg/kg i.p.): 68%
- Bezold Jarisch reflex (mice); % Inhibition @ Dose (IP) ([2]; 3 mg/kg i.p.): 73%
- Bezold Jarisch reflex (mice); % Inhibition @ Dose (IP) ([2]; 10 mg/kg i.p.): 87%

Structure (SMILES): O=C(N[C@H]1[C@H]2C[C@@H]3CN(C2)C[C@@H]31)c1cc(Cl)cn2ccnc12 (relative stereo) [Example 9, (±)-endo-N-(Hexahydro-1H-2,5β-methano-3aα,6aα-cyclopenta[c]pyrrol-4α-yl)-6-chloroimidazo[1,2-a]pyridine-8-carboxamide, monohydrochloride]
- Ki [1]: 64 nM
- IC50 [1, 4]: 16 nM and 127 nM

Structure (SMILES): O=C(N[C@H]1[C@H]2C[C@@H]3CN(C2)C[C@@H]31)c1cccn2ccnc12 (relative stereo) [Example 10, (±)-endo-N-(Hexahydro-1H-2,5β-methano-3aα,6aα-cyclopenta[c]pyrrol-4α-yl)imidazo[1,2-a]pyridine-8-carboxamide, hydrochloride]
- Ki [1]: 122 nM
- IC50 [1, 4]: 200 nM and 243 nM
- Bezold Jarisch reflex (mice); % Inhibition @ Dose (IP) ([2]; 10 mg/kg i.p.): 81%

Structure (SMILES): CO[C@@H]1CN(CCCOc2ccc(F)cc2)CC[C@@H]1NC(=O)c1cccn2ccnc12 (relative stereo) [Example 13, Cis-N-[[3-(4-Fluorophenoxy)propyl]-3-methoxy-4piperidinylamine]imidazo[1,2-a]pyridine-8-carboxamide]
- Bezold Jarisch reflex (mice); % Inhibition @ Dose (IP) ([2]; 10 mg/kg i.p.): 23%

Structure (SMILES): CCc1cc(C(=O)N[C@H]2[C@H]3C[C@@H]4CN(C3)C[C@@H]42)c2ccccn12 (relative stereo) [Example 15, (±)-endo-N-(Hexahydro-1H-2,5β-methano-3aα,6aα-cyclopenta[c]pyrrol-4aα-yl)-3-ethylindolizine-1-carboxamide monohydrochloride]
- IC50 [1, 4]: 26.3 nM

Structure (SMILES): CCc1nc(C(=O)N[C@H]2[C@H]3C[C@@H]4CN(C3)C[C@@H]42)c2ccccn12 (relative stereo) [Example 16, (±)-endo-N-(Hexahydro-1H,2,5β-methano-3aα,6aα-cyclopenta[c]pyrrol-4α-yl)-3-ethylimidazo[1,5-a]pyridine-1-carboxamide, monohydrochloride]
- IC50 [1, 4]: 30 nM

Structure (SMILES): CN1C2CCCC1CC(NC(=O)c1nn(C)c3ccccc13)C2 (stereo not shown) [BRL-43694, reference compound]
- minimal effective dose [2, 5]: 0.05 mg/kg

Structure (SMILES): Cl.Cl.O=C(NC1CCN2CCCC1C2)c1cccn2ccnc12 (stereo not drawn) [Example 2, endo-N-(1-Azabicyclo[3.3.1]nonan-4-yl)imidazo[1,2-a]pyridine-8-carboxamide, dihydrochloride]
- Bezold Jarisch reflex (mice); % Inhibition @ Dose (IP) ([2]; 5 mg/kg i.p.): 1%
- Bezold Jarisch reflex (mice); % Inhibition @ Dose (IP) ([2]; 10 mg/kg i.p.): 53%

Structure (SMILES): CN1[C@@H]2CC[C@H]1C[C@@H](NC(=O)c1cc(Cl)cn3ccnc13)C2 [Example 3, endo-N-(8-Methyl-8-azabicyclo [3.2.1]octan-3-yl)-6-chloroimidazo[1,2-a]pyridine-8-carboxamide, dihydrochloride]
- Ki [1]: 50 nM
- IC50 [1, 4]: 19.3 nM and 99 nM

Structure (SMILES): CN1[C@@H]2CC[C@H]1C[C@@H](NC(=O)c1cccn3ccnc13)C2 [Example 4, endo-N-(8-methyl-8-azabicyclo[3.2.1]octan-3-yl)imidazo [1,2-a]pyridine-8-carboxamide, hydrochloride]
- Ki [1]: 416 nM
- IC50 [1, 4]: 500 nM and 831 nM
- Bezold Jarisch reflex (mice); % Inhibition @ Dose (IP) ([2]; 3 mg/kg i.p.): 2%
- Bezold Jarisch reflex (mice); % Inhibition @ Dose (IP) ([2]; 10 mg/kg i.p.): 82%

Structure (SMILES): CN1[C@@H]2CC[C@H]1C[C@H](NC(=O)c1cccn3ccnc13)C2 [Example 5, exo-N-(8-methyl-8-azabicyclo[3.2.1]octan-3-yl)imidazo[1,2-a]pyridine-8-carboxamide, hydrochloride]
- Ki [1]: 314 nM
- IC50 [1, 4]: 475 nM and 628 nM
- Bezold Jarisch reflex (mice); % Inhibition @ Dose (IP) ([2]; 10 mg/kg i.p.): 80%

Structure (SMILES): CN1[C@@H]2CCC[C@H]1C[C@@H](NC(=O)c1cc(Cl)cn3ccnc13)C2 [Example 6, endo-N-(9-Methyl-9-azabicyclo[3.3.1]nonan-3-yl)-6-chloroimidazo[1,2-a]pyridine-8-carboxamide hydrochloride]
- Ki [1]: 4.9 nM

Structure (SMILES): O=C(NC1CN2CCC1CC2)c1cc(Cl)cn2ccnc12 (stereo not shown) [Example 7, N-(1-Azabicyclo[2.2.2]octan-3-yl)-6-chloroimidazo[1,2-a]pyridine-8-carboxamide dihydrochloride]
- Ki [1]: 12 nM
- IC50 [1, 4]: 17.5 nM and 23 nM

Structure (SMILES): O=C(NC1CN2CCC1CC2)c1cccn2ccnc12 (stereo not shown) [Example 8, N-(1-Azabicyclo[2.2.2]octan-3-yl)imidazo[1,2-a]pyridine-8-carboxamide, dihydrochloride]
- IC50 ([1]; read-out: 5-HT3 binding: NG108-15 cells IC50, several examples have two IC50 values): 70 nM
- Bezold Jarisch reflex (mice); % Inhibition @ Dose (IP) ([2]; 0.5 mg/kg i.p.): 82%
- Bezold Jarisch reflex (mice); % Inhibition @ Dose (IP) ([2]; 2.5 mg/kg i.p.): 88%
- Bezold Jarisch reflex (mice); % Inhibition @ Dose (IP) ([2]; 5 mg/kg i.p.): 95%
- Bezold Jarisch reflex (mice); % Inhibition @ Dose (IP) ([2]; 10 mg/kg i.p.): 100%

Structure (SMILES): O=C(NC1C2CC3CC1CN(C3)C2)c1cc(Cl)cn2ccnc12 (stereo not drawn) [Example 11, exo-N-(1-azatricyclo[3.3.1.1^3,7]decan-4-yl)-6-chloroimidazo[1,2-a]pyridine-8-carboxamide, monohydrochloride]
- IC50 [1, 4]: > 100 nM

Structure (SMILES): CCN(CC)CCNC(=O)c1cccn2ccnc12 [Example 12, N-[2-(Diethylamino)ethyl]imidazo[1,2-a]pyridine-8-carboxamide]
- IC50 [1, 4]: 17 nM

Structure (SMILES): Cc1[nH]cnc1CCC(=O)c1cn(C)c2ccccc12 [GR65630]
- Bmax ([3]; [3H]-GR65630, rat cortex membranes): 154 fmol/mg protein
- Specific Binding ([3]; [3H]-GR65630, non-specific binding with 1 uM ICS 205-930): 70

Structure (SMILES): Cc1nccn1CC1CCc2c(c3ccccc3n2C)C1=O (stereo not shown) [GR-38032, reference compound]
- minimal effective dose [2, 6]: 0.5 mg/kg

Structure (SMILES): CN1[C@@H]2CC[C@H]1C[C@@H](OC(=O)c1c[nH]c3ccccc13)C2 [ICS 205-930]
- Hill Coefficient [3]: 1.0

Structure (SMILES): c1ccc2nc(N3CCNCC3)ccc2c1 [Quipazine]
- Hill Coefficient [3]: 0.86

Structure (SMILES): COc1ccc2[nH]cc(C3=CCNCC3)c2c1 [RU24969]
- Hill Coefficient [3]: 1.0

Structure (SMILES): COc1cc(N)c(Cl)cc1C(=O)NC1CN2CCC1CC2 (stereo not shown) [Zacopride]
- Hill Coefficient [3]: 0.86

Structure (SMILES): COc1cc(N)c(Cl)cc1C(=O)NC1CCN(CCCOc2ccc(F)cc2)CC1OC (stereo not shown) [cisapride, reference compound]
- minimal effective dose [2, 6]: 5 mg/kg

Structure (SMILES): CN1CCC(=C2c3ccccc3C=Cc3ccccc32)CC1 [cyproheptadine, reference compound]
- minimal effective dose [2, 6]: 5 mg/kg

Structure (SMILES): O=c1[nH]c2ccccc2n1CCCN1CCC(n2c(=O)[nH]c3cc(Cl)ccc32)CC1 [domperidone, reference compound]
- minimal effective dose [2, 5]: > 10 mg/kg

Structure (SMILES): O=C(c1ccc(F)cc1)C1CCN(CCn2c(=O)[nH]c3ccccc3c2=O)CC1 [ketanserin, reference compound]
- minimal effective dose [2, 6]: > 10 mg/kg

Structure (SMILES): CNC1(C)C2CCC(C2)C1(C)C (stereo not shown) [mecamylamine, reference compound]
- minimal effective dose [2, 6]: 2.5 mg/kg

Structure (SMILES): CC[C@@H](CO)NC(=O)[C@@H]1C=C2c3cccc4c3c(cn4C)C[C@H]2N(C)C1 [methysergide, reference compound]
- minimal effective dose [2, 5]: > 10 mg/kg

Structure (SMILES): CCN(CC)CCNC(=O)c1cc(Cl)c(N)cc1OC [metoclopramide, reference compound]
- minimal effective dose [2, 5]: 5 mg/kg

Structure (SMILES): CN1[C@@H]2C[C@@H](OC(=O)[C@H](CO)c3ccccc3)C[C@H]1[C@@H]1O[C@@H]12 [scopolamine, reference compound]
- minimal effective dose [2, 5]: 2.5 mg/kg
